Test results: the supplement of paper PMC10307832

What was measured:
Assay in all cases: relative viability (nuclei count vs DMSO), 5 days (fraction); higher = more cells survive
[1] = compound: O=S(=O)(c1ccccc1)N(CC(F)(F)F)c1ccc(C(O)(C(F)(F)F)C(F)(F)F)cc1 + N=C(N)NC(=N)NCCc1ccccc1 [Phenformin] (partner 250 µM)
Outline: (§1)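 Dosing by pin tool came one day after lung cancer cell lines were seeded in 1536-well plates, using either one drug or a fixed anchor-drug dose plus five library-drug doses (not always all listed) in √10 steps. After 5 days, nuclei were counted on 4× images. Relative viability is treated-well nuclei count divided by vehicle-well nuclei count, and values are medians of duplicate plates.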

[2] = compound: O=S(=O)(c1ccccc1)N(CC(F)(F)F)c1ccc(C(O)(C(F)(F)F)C(F)(F)F)cc1 + CS(=O)(=O)CCNCc1ccc(-c2ccc3ncnc(Nc4ccc(OCc5cccc(F)c5)c(Cl)c4)c3c2)o1 [Lapatinib] (partner 2 µM)
Outline: as §1

[3] = compound: C1=CC2=C(C=CC(=C2)C=C3C(=O)NC(=NCC4=CC=CS4)S3)N=C1 [RO-3306] + CS(=O)(=O)N1CCN(Cc2cc3nc(-c4cccc5[nH]ncc45)nc(N4CCOCC4)c3s2)CC1 [Pictilisib] (partner 1 µM)
Outline: as §1

[4] = compound: O=S(=O)(c1ccccc1)N(CC(F)(F)F)c1ccc(C(O)(C(F)(F)F)C(F)(F)F)cc1 + CCNC(=O)c1noc(-c2cc(C(C)C)c(O)cc2O)c1-c1ccc(CN2CCOCC2)cc1 [Luminespib] (partner 0.01 µM)
Outline: as §1

[5] = compound: O=S(=O)(c1ccccc1)N(CC(F)(F)F)c1ccc(C(O)(C(F)(F)F)C(F)(F)F)cc1 + Nc1ncn([C@H]2C[C@H](O)[C@@H](CO)O2)c(=O)n1 [Decitabine] (partner 2 µM)
Outline: as §1

## HCC-827
[1]; first compound 0.8 µM
  relative viability: 0.448
[1]; first compound 2.53 µM
  relative viability: 0.411
[1]; first compound 8 µM
  relative viability: 0.4
[2]; first compound 0.8 µM
  relative viability: 0.231
[2]; first compound 2.53 µM
  relative viability: 0.201
[2]; first compound 8 µM
  relative viability: 0.217
[3]; first compound 0.01 µM
  relative viability: 0.913
[3]; first compound 0.03162 µM
  relative viability: 0.983
[3]; first compound 0.1 µM
  relative viability: 0.878
[3]; first compound 0.3162 µM
  relative viability: 1.07
[3]; first compound 1 µM
  relative viability: 1.05
[4]; first compound 0.8 µM
  relative viability: 0.439
[4]; first compound 2.53 µM
  relative viability: 0.589
[4]; first compound 8 µM
  relative viability: 0.573
[5]; first compound 0.8 µM
  relative viability: 0.364
[5]; first compound 2.53 µM
  relative viability: 0.375
[5]; first compound 8 µM
  relative viability: 0.269

## HOP-62
[1]; first compound 0.8 µM
  relative viability: 0.646
[1]; first compound 2.53 µM
  relative viability: 0.533
[1]; first compound 8 µM
  relative viability: 0.427
[2]; first compound 0.8 µM
  relative viability: 1.18
[2]; first compound 2.53 µM
  relative viability: 0.812
[2]; first compound 8 µM
  relative viability: 0.798
[3]; first compound 0.01 µM
  relative viability: 0.898
[3]; first compound 0.03162 µM
  relative viability: 0.564
[3]; first compound 0.1 µM
  relative viability: 0.759
[3]; first compound 0.3162 µM
  relative viability: 0.686
[3]; first compound 1 µM
  relative viability: 0.471
[4]; first compound 0.8 µM
  relative viability: 0.903
[4]; first compound 2.53 µM
  relative viability: 0.907
[4]; first compound 8 µM
  relative viability: 0.862
[5]; first compound 0.8 µM
  relative viability: 0.252
[5]; first compound 2.53 µM
  relative viability: 0.193
[5]; first compound 8 µM
  relative viability: 0.239

## IA-LM
[2]; first compound 0.8 µM
  relative viability: 0.903
[2]; first compound 2.53 µM
  relative viability: 0.68
[2]; first compound 8 µM
  relative viability: 0.752
[3]; first compound 0.01 µM
  relative viability: 0.339
[3]; first compound 0.03162 µM
  relative viability: 0.242
[3]; first compound 0.1 µM
  relative viability: 0.311
[3]; first compound 0.3162 µM
  relative viability: 0.278
[3]; first compound 1 µM
  relative viability: 0.36

## LC-2-ad
[1]; first compound 0.8 µM
  relative viability: 0.626
[1]; first compound 2.53 µM
  relative viability: 0.584
[1]; first compound 8 µM
  relative viability: 0.633
[2]; first compound 0.8 µM
  relative viability: 1.04
[2]; first compound 2.53 µM
  relative viability: 0.876
[2]; first compound 8 µM
  relative viability: 0.99
[3]; first compound 0.01 µM
  relative viability: 0.43
[3]; first compound 0.03162 µM
  relative viability: 0.275
[3]; first compound 0.1 µM
  relative viability: 0.377
[3]; first compound 0.3162 µM
  relative viability: 0.488
[3]; first compound 1 µM
  relative viability: 0.428
[4]; first compound 0.8 µM
  relative viability: 0.898
[4]; first compound 2.53 µM
  relative viability: 0.892
[4]; first compound 8 µM
  relative viability: 0.864
[5]; first compound 0.8 µM
  relative viability: 0.825
[5]; first compound 2.53 µM
  relative viability: 0.803
[5]; first compound 8 µM
  relative viability: 0.709

## LCLC-97TM1
[1]; first compound 0.8 µM
  relative viability: 0.448
[1]; first compound 2.53 µM
  relative viability: 0.402
[1]; first compound 8 µM
  relative viability: 0.419
[2]; first compound 0.8 µM
  relative viability: 1.09
[2]; first compound 2.53 µM
  relative viability: 0.653
[2]; first compound 8 µM
  relative viability: 0.71
[3]; first compound 0.03162 µM
  relative viability: 0.18
[3]; first compound 0.1 µM
  relative viability: 0.165
[3]; first compound 0.3162 µM
  relative viability: 0.254
[3]; first compound 1 µM
  relative viability: 0.183
[4]; first compound 0.8 µM
  relative viability: 0.716
[4]; first compound 2.53 µM
  relative viability: 0.744
[4]; first compound 8 µM
  relative viability: 0.682
[5]; first compound 2.53 µM
  relative viability: 0.22
[5]; first compound 8 µM
  relative viability: 0.196

## LCLC-103H
[1]; first compound 0.8 µM
  relative viability: 0.367
[1]; first compound 2.53 µM
  relative viability: 0.297
[1]; first compound 8 µM
  relative viability: 0.318
[3]; first compound 0.01 µM
  relative viability: 0.461
[3]; first compound 0.03162 µM
  relative viability: 0.556
[3]; first compound 0.1 µM
  relative viability: 0.561
[3]; first compound 0.3162 µM
  relative viability: 0.655
[3]; first compound 1 µM
  relative viability: 0.608
[4]; first compound 0.8 µM
  relative viability: 1.07
[4]; first compound 2.53 µM
  relative viability: 0.862
[4]; first compound 8 µM
  relative viability: 0.845
[5]; first compound 0.8 µM
  relative viability: 0.739
[5]; first compound 2.53 µM
  relative viability: 0.743
[5]; first compound 8 µM
  relative viability: 0.734

## LK-2
[1]; first compound 0.8 µM
  relative viability: 0.505
[1]; first compound 2.53 µM
  relative viability: 0.66
[1]; first compound 8 µM
  relative viability: 0.555
[2]; first compound 0.8 µM
  relative viability: 1.13
[2]; first compound 2.53 µM
  relative viability: 0.82
[2]; first compound 8 µM
  relative viability: 0.913
[3]; first compound 0.01 µM
  relative viability: 0.482
[3]; first compound 0.03162 µM
  relative viability: 0.499
[3]; first compound 0.1 µM
  relative viability: 0.64
[3]; first compound 0.3162 µM
  relative viability: 0.681
[3]; first compound 1 µM
  relative viability: 0.534
[4]; first compound 0.8 µM
  relative viability: 0.175
[4]; first compound 2.53 µM
  relative viability: 0.174
[4]; first compound 8 µM
  relative viability: 0.227
[5]; first compound 0.8 µM
  relative viability: 0.333
[5]; first compound 2.53 µM
  relative viability: 0.347
[5]; first compound 8 µM
  relative viability: 0.325

## LOU-NH91
[1]; first compound 0.8 µM
  relative viability: 0.607
[1]; first compound 2.53 µM
  relative viability: 0.562
[1]; first compound 8 µM
  relative viability: 0.661
[2]; first compound 0.8 µM
  relative viability: 0.859
[2]; first compound 2.53 µM
  relative viability: 0.832
[2]; first compound 8 µM
  relative viability: 0.854
[3]; first compound 0.01 µM
  relative viability: 0.512
[3]; first compound 0.03162 µM
  relative viability: 0.528
[3]; first compound 0.1 µM
  relative viability: 0.522
[3]; first compound 0.3162 µM
  relative viability: 0.533
[3]; first compound 1 µM
  relative viability: 0.406
[4]; first compound 0.8 µM
  relative viability: 0.404
[4]; first compound 2.53 µM
  relative viability: 0.353
[4]; first compound 8 µM
  relative viability: 0.285
[5]; first compound 0.8 µM
  relative viability: 0.846
[5]; first compound 2.53 µM
  relative viability: 0.823
[5]; first compound 8 µM
  relative viability: 0.894

## LU99A
[1]; first compound 0.8 µM
  relative viability: 0.878
[1]; first compound 2.53 µM
  relative viability: 0.762
[1]; first compound 8 µM
  relative viability: 0.875
[2]; first compound 0.8 µM
  relative viability: 1.11
[2]; first compound 2.53 µM
  relative viability: 1.05
[2]; first compound 8 µM
  relative viability: 0.901
[3]; first compound 0.01 µM
  relative viability: 0.33
[3]; first compound 0.03162 µM
  relative viability: 0.292
[3]; first compound 0.1 µM
  relative viability: 0.343
[3]; first compound 0.3162 µM
  relative viability: 0.284
[3]; first compound 1 µM
  relative viability: 0.295
[4]; first compound 0.8 µM
  relative viability: 0.332
[4]; first compound 2.53 µM
  relative viability: 0.226
[4]; first compound 8 µM
  relative viability: 0.185
[5]; first compound 0.8 µM
  relative viability: 0.876
[5]; first compound 2.53 µM
  relative viability: 0.863
[5]; first compound 8 µM
  relative viability: 0.834

## LXF-289
[1]; first compound 0.8 µM
  relative viability: 0.504
[1]; first compound 2.53 µM
  relative viability: 0.475
[1]; first compound 8 µM
  relative viability: 0.463
[2]; first compound 0.8 µM
  relative viability: 0.797
[2]; first compound 2.53 µM
  relative viability: 0.775
[2]; first compound 8 µM
  relative viability: 0.758
[3]; first compound 0.01 µM
  relative viability: 0.781
[3]; first compound 0.03162 µM
  relative viability: 0.677
[3]; first compound 0.1 µM
  relative viability: 0.806
[3]; first compound 0.3162 µM
  relative viability: 0.805
[3]; first compound 1 µM
  relative viability: 0.774
[4]; first compound 0.8 µM
  relative viability: 0.858
[4]; first compound 2.53 µM
  relative viability: 0.559
[4]; first compound 8 µM
  relative viability: 0.641
[5]; first compound 0.8 µM
  relative viability: 0.411
[5]; first compound 2.53 µM
  relative viability: 0.419
[5]; first compound 8 µM
  relative viability: 0.429
